# According to patent publication US9399637B2, “Substituted heteroaryl compounds and methods of use” (Calitor Sciences, LLC, priority 2014, dated 2016):
# Experiments:
# [1] = Compound stability in rat liver microsomes; type: in vitro ADME; conditions: pH 7.4; for half-life at 5 μM: rat liver microsomes 0.5 mg protein/mL, compound 5 μM, NADPH, 37° C., read-out: Rat T1/2; for CLint scaled at 5 μM: rat liver microsomes, in vivo CLint extrapolated
# Protocol: Human or rat liver microsomes incubations were conducted in duplicate in polypropylene tubes. The typical incubation mixtures consisted of human or rat liver microsomes (0.5 mg protein/mL), compounds of interest (5 μM) and NADPH (1.0 mM) in a total volume of 200 μL potassium phosphate buffer (PBS, 100 mM, pH 7.4). Compounds were dissolved in DMSO and diluted with PBS such that the final concentration of DMSO was 0.05%. The enzymatic reactions were commenced with the addition of […] after a 3-min preincubation and incubated in a water bath open to the air at 37° C. Reactions were terminated at various time points (0, 5, 10, 15, 30, 60 min) by adding equal volume of ice-cold acetonitrile. The samples were stored at […] until LC/MS/MS assays.
# The concentrations of compounds in the incubation mixtures of human or rat liver microsomes were determined by a LC/MS/MS method. The ranges of the linearity in the concentration range were determined for each tested compounds.
# A parallel incubation was performed using denatured microsomes as the negative control, and reactions were terminated at various time points (0, 15, 60 min) after incubation at 37° C.
# Dextromethorphan (70 μM) was selected as the positive control, and reactions were terminated at various time points (0, 5, 10, 15, 30, 60 min) after incubation at 37° C. Both positive and negative control samples were included in each assay to ensure the integrity of the microsomal incubation system.
# The concentrations of compounds in human or rat liver microsome incubations were plotted as a percentage of the relevant zero time point control for each reaction. The in vivo CLint were extrapolated (ref.: Naritomi, Y.; Terashita, S.; Kimura, S.; Suzuki, A.; Kagayama, A.; and Sugiyama, Y.; Prediction of human hepatic clearance from in vivo animal experiments and in vitro metabolic studies with liver microsomes from animals and humans. Drug Metab. Dispos., 2001, 29: 1316-1324).
# [2] = target: T1, JAK2 (h) (Homo sapiens, UniProt O60674); assay: JAK2 kinase assay; type: biochemical
# T1 construct: purchased Millipore UK Ltd (assays run there as a service)
# T1 sequence (O60674 whole entry): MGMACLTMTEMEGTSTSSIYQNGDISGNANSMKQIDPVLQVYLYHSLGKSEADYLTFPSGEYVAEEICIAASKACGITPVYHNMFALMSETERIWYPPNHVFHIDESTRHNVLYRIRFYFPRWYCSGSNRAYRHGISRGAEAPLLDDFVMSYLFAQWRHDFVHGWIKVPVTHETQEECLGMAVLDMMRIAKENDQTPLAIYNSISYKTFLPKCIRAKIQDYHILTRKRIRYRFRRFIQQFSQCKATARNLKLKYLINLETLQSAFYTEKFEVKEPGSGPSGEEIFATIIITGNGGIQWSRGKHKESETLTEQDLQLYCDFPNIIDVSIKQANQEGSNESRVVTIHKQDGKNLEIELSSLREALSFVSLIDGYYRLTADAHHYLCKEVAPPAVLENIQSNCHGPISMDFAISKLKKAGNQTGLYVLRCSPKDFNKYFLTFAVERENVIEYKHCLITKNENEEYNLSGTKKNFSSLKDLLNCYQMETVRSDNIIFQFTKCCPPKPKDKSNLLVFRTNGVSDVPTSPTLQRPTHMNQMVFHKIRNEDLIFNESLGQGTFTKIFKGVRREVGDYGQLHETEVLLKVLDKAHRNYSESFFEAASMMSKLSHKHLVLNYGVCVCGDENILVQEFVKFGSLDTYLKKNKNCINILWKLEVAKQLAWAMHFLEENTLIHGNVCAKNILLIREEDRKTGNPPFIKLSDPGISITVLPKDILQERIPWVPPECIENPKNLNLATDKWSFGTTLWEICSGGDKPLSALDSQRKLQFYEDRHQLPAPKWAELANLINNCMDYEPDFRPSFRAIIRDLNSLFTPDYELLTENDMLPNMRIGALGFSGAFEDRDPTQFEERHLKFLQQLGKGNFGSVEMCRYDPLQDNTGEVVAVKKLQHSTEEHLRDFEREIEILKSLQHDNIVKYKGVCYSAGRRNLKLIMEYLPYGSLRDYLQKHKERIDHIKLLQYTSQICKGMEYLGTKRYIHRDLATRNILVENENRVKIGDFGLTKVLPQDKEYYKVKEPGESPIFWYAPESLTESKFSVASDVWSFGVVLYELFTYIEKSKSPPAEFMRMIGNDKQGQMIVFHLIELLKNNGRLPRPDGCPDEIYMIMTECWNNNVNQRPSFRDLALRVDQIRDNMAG
# Protocol: Kinase assays can be performed by measurement of incorporation of γ-^33P ATP into immobilized myelin basic protein (MBP). High binding white 384 well plates (Greiner) are coated with MBP (Sigma #M-1891) by incubation of 60 μL/well of 20 μg/mL MBP in Tris-buffered saline (TBS; 50 mM Tris pH 8.0, 138 mM NaCl, 2.7 mM KCl) for 24 h at 4° C. Plates are washed 3× with 100 μL TBS. Kinase reactions are carried out in a total volume of 34 μL in kinase buffer (5 mM Hepes pH 7.6, 15 mM NaCl, 0.01% bovine gamma globulin (Sigma #I-5506), 10 mM MgCl2, 1 mM DTT, 0.02% TritonX-100). Compound dilutions are performed in DMSO and added to assay wells to a final DMSO concentration of 1%. Each data point is measured in duplicate, and at least two duplicate assays are performed for each individual compound determination. Enzyme is added to final concentrations of 10 nM or 20 nM, for example. A mixture of unlabeled ATP and γ-^33P ATP is added to start the reaction (2×10^6 cpm of γ-^33P ATP per well (3000 Ci/mmole) and 10 μM unlabeled ATP, typically. The reactions are carried out for 1 h at room temperature with shaking Plates are washed 7× with TBS, followed by the addition of 50 μL/well scintillation fluid (Wallac). Plates are read using a Wallac Trilux counter. This is only one format of such assays; various other formats are possible, as known to one skilled in the art.
# The above assay procedure can be used to determine the IC50 for inhibition and/or the inhibition constant, Ki. The IC50 is defined as the concentration of compound required to reduce the enzyme activity by 50% under the condition of the assay. The IC50 value is estimated by preparing a 10 point curve using a ½ log dilution series (for example, a typical curve may be prepared using the following compound concentrations: 3 μM, 1 μM, 0.3 μM, 0.1 μM, 0.03 μM, 0.01 μM, 0.003 μM, 0.001 μM, 0.0003 μM and 0 μM).
# (specific activity approx. 500 cpm/pmol, concentration as required).
# The kinase assays described herein were performed at Millipore UK Ltd, Dundee Technology Park, Dundee DD2 1SW, UK.
# [3] = Pharmacokinetics after intravenous and oral administration in rats; type: in vivo; conditions: iv dosing, 1 mg/kg; for AUC(0-t) / half-life / Vd: rat, plasma; for Vd: read-out: Vss
# Protocol: The LC/MS/MS system used in the analysis consists of an Agilent 1200 Series vacuum degasser, binary pump, well-plate autosampler, thermostatted column compartment, the Agilent G6430 Triple Quadrupole Mass Spectrometer with an electrosprayionization (ESI) source. Quantitative analysis was carried out using MRM mode. The parameters for MRM transitions are in the Table A.
# An Agilent XDB-C18, 2.1×30 mm, 3.5 μM column was used for the analysis. 5 μL of the samples were injected. Analysis condition: The mobile phase was 0.1% formic acid in water (A) and 0.1% formic acid in methanol (B). The flow rate was 0.4 mL/min. And the gradient of Mobile phase was in the Table B.
# Alternatively, an Agilent 6330 series LC/MS/MS spectrometer equipped with G1312A binary pumps, a G1367A autosampler and a G1314C UV detector were used in the analysis. An ESI source was used on the LC/MS/MS spectrometer. The analysis was done in positive ion mode as appropriate and the MRM transition for each analyte was optimized using standard solution. A Capcell MP-C18 100×4.6 mm I.D., […] column (Phenomenex, Torrance, Calif., USA) was used during the analysis. The mobile phase was 5 mM ammonia acetate, 0.1% MeOH in water (A): 5 mM ammonia acetate, 0.1% MeOH in acetonitrile (B) (70:30, v/v). The flow rate was 0.6 mL/min. Column was maintained at ambient temperature. 20 μL of the samples were injected.
# The compounds disclosed herein are assessed in pharmacokinetic studies in mice, rats, dogs or monkeys. The compounds are administered as a water solution, 2% HPMC+1% TWEEN®80 in water solution, 5% DMSO+5% solutol in saline, 4% MC suspension or capsule. For the intravenous administration, the animals are generally given at 1 or 2 mg/kg dose. For the oral (p.o.) dosing, mice and rats are generally given 5 or 10 mg/kg dose, and dogs and monkeys are generally given 10 mg/kg dose. The blood samples (0.3 mL) are drawn at 0.25, 0.5, 1.0, 2.0, 3.0, 4.0, 6.0, 8.0, 12 and 24 h time points or 0.083, 0.25, 0.5, 1.0, 2.0, 4.0, 6.0, 8.0 and 24 h time points and centrifuged at 3,000 or 4000 rpm for 2 to 10 min. The plasma solutions are collected, and stored at −20° C. or −70° C. until analyzed by LC/MS/MS as described above.
SMILES,half-life at 5 μM [1],CLint scaled at 5 μM [1],IC50 [2],Cl/F [3],AUC(0-t) [3],half-life [3],Vd [3]
"CC(=O)N1CCC2(CCC(Nc3nc(Nc4ccc5c(C)n(C)nc5c4)ncc3Cl)CC2)CC1 [Ex. 7, 1-(9-((5-chloro-2-((2,3-dimethyl-2H-indazol-6-yl)amino)pyrimidin-4-yl)amino)-3-azaspiro[5.5]undecan-3-yl)ethanone]",29.3 min,84.8 mL/min/kg,2 nM,24.5 mL/min/kg,688 ng·h/mL,51 min,1.68 L/kg
"Cc1c2ccc(Nc3ncc(Cl)c(NC4CC5CN(C(=O)CC#N)CC5C4)n3)cc2nn1C (centres unmarked) [Ex. 4, 3-(5-((5-chloro-2-((2,3-dimethyl-2H-indazol-6-yl)amino)pyrimidin-4-yl)amino)hexahydrocyclopenta[c]pyrrol-2(1H)-yl)-3-oxopropanenitrile]",25.3 min,98.3 mL/min/kg,9 nM,36.2 mL/min/kg,458 ng·h/mL,81.6 min,1.44 L/kg
